In US20200392158A1, “INHIBITORS OF LEUCINE RICH REPEAT KINASE 2” (GLAXOSMITHKLINE INTELLECTUAL PROPERTY DEVELOPMENT LIMITED, priority 2017, published 2020):
pIC50: −log10 of the molar value.

target: T1, LRRK2 kinase in SH-SY5Y cells over-expressing recombinant full length LRRK2 (Homo sapiens, UniProt Q5S007); test: Recombinant cellular LRRK2 AlphaScreen assay (LRRK2 Ser935 phosphorylation); type: cell-based; conditions: 60 min
T1 construct: A BacMam virus expressing full length recombinant LRRK2 was purchased from Invitrogen; host or cells: SH-SY5Y human neuroblastoma cells transduced with BacMam LRRK2 virus
T1 sequence (Q5S007 whole entry): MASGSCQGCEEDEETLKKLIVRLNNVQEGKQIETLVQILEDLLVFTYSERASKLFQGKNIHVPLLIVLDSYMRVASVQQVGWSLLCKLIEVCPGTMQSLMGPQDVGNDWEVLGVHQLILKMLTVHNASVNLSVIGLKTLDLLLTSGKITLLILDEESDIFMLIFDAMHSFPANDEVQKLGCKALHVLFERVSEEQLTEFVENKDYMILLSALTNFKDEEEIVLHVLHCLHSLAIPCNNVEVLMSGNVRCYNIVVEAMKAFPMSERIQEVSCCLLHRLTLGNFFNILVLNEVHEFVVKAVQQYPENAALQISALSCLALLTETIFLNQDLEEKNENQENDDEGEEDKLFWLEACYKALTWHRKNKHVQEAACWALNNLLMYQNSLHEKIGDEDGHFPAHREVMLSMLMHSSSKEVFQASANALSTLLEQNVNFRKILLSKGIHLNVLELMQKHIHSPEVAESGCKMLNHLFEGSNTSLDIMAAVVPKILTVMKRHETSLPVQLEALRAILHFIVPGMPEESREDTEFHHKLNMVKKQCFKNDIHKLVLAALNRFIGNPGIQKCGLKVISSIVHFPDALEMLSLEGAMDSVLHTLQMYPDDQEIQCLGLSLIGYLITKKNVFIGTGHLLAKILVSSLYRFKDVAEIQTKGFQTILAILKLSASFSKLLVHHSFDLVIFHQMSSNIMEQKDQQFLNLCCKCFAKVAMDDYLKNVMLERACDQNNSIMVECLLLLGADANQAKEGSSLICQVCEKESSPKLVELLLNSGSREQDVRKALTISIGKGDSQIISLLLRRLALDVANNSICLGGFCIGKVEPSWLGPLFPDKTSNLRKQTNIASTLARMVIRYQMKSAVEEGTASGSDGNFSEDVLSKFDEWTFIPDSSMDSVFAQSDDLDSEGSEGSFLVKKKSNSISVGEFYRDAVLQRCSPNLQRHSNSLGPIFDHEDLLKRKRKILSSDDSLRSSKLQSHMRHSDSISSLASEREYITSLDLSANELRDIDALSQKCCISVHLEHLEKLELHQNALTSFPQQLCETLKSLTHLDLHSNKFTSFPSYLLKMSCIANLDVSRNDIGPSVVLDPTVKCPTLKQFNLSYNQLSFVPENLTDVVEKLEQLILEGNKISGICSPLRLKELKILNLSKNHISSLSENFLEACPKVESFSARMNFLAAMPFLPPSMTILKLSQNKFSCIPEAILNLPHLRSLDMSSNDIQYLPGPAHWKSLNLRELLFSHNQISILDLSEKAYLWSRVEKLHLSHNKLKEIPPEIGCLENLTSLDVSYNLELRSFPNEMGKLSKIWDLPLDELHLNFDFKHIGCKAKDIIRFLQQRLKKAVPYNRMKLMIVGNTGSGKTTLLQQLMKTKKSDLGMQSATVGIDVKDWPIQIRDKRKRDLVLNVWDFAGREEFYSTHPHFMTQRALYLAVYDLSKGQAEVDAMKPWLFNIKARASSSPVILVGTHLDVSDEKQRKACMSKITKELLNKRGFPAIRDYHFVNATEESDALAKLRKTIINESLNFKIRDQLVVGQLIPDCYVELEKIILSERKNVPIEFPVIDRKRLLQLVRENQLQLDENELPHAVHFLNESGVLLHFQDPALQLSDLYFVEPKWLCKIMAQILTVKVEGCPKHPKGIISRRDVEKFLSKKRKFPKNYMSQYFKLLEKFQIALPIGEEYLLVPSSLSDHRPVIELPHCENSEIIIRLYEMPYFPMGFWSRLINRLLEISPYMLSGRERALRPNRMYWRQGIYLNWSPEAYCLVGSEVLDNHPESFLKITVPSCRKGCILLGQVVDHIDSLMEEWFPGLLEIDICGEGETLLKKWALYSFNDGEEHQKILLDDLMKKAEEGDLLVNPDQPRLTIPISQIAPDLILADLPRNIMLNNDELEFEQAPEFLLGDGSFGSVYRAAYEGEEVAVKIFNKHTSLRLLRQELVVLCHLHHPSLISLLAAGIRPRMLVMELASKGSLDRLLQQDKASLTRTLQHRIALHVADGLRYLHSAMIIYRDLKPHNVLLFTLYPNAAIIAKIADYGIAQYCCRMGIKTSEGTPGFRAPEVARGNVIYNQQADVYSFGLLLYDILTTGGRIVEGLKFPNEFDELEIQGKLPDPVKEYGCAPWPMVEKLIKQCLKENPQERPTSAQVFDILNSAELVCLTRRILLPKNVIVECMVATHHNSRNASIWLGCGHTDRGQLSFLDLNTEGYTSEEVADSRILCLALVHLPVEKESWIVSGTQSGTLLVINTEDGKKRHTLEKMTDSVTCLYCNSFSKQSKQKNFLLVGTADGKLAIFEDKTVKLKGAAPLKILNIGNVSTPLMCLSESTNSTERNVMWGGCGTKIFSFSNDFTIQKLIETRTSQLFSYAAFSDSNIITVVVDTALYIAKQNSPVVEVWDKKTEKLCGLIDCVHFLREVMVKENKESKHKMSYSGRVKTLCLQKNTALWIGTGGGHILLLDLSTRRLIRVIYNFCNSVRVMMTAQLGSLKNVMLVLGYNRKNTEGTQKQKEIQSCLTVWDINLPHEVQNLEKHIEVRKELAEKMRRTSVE
Excerpt: b. Recombinant Cellular LRRK2 AlphaScreen Assay
To determine the activity of compounds against LRRK2 kinase in cells, the observed LRRK2 kinase-dependent modulation of LRRK2 Ser 935 phosphorylation (Dzamko et al., 2010, Biochem. J. 430: 405-413) was utilized to develop a quantitative 384 well plate-based immunoassay of LRRK2 Ser935 phosphorylation in the human neuroblastoma cell line SH-SY5Y, engineered to over-express recombinant full length LRRK2 protein.
A BacMam virus expressing full length recombinant LRRK2 was purchased from Invitrogen and amplified by inoculation of SF-9 cells at MOI 0.3 for 4-5 days in Sf-900 III SFM medium supplemented with 3% fetal bovine serum. Infected cell cultures were then centrifuged at 2000 g for 20 minutes, viral supernatant titer determined by anti-gp64 plaque assay and stored at 4° C.
Affinity-purified anti-phospho LRRK2 Ser935 sheep polyclonal antibody (Dzamko et al., 2010, Biochem. J. 430: 405-413) was biotinylated by standard methods (PerkinElmer). Anti-LRRK2 rabbit polyclonal antibody was purchased from Novus Biologicals. AlphaScreen Protein A IgG Kit (including acceptor and donor beads) was purchased from Perkin Elmer.
SH-SY5Y cells were grown in DMEM/F12 medium with 10% dialysed fetal bovine serum and harvested by treatment with 0.5% trypsin-EDTA for 5 minutes at 37° C. followed by centrifugation at 1000 rpm for 4 minutes. The cell pellet was resuspended in Opti-MEM reduced serum media (Invitrogen) at 200,000 cells/ml and mixed with the BacMam LRRK2 virus at M01=50. 50 μl cell solutions were then dispensed to each well of a 384-well plate and incubated at 37° C., 5% CO2 for 24 hours.
Compounds were prepared at 10× final assay concentration as 11 point 1 in 4 serial I dilutions in Opti-MEM reduced serum medium (Invitrogen 31985070) containing 1% DMSO. On the day of assay, 5.5 μl of the compound solutions were transferred from the compound plate to the cell assay plate to achieve a top final assay concentration of 10 uM. DMSO (0.1% final assay concentration) was added to column 6 and 2-(benzyloxy)-5-methyl-4-(1-methyl-1H-pyrazol-4-yl)-N-(pyridin-3-yl)benzamide (2 μM final assay concentration) was added to column 18 to serve as 0% and 100% inhibition controls, respectively.
Cells were incubated at 37° C., 5% CO2 for 60 minutes. The medium was then removed and cells lysed by addition of 20 μl of cell lysis buffer (Cell Signaling Technology) and incubation at 4° C. for 20 minutes. 10 μl of antibody/acceptor bead mix [(1/1000 biotinylated-pS935 LRRK2 antibody, 1/1000 total-LRRK2 antibody, 1/100 Acceptor beads in AlphaScreen detection buffer (25 mM Hepes (pH 7.4), 0.5% Triton X-100, 1 mg/ml Dextran 500 and 0.1% BSA)] was then added to each well and plates incubated for 2 hours at ambient temperature in the dark. 10 μl of donor beads solution (1/33.3 donor beads in AlphaScreen detection buffer) was then added to each well. Following incubation for a further 2 hours at ambient temperature in the dark, plates were read on an EnVision™ plate reader at emission 520-620 nm with excitation 680 nm. Dose response curve data was based on a sigmoidal dose-response model.

Question: With Cc1c2c(nn1C1CCC(O)CC1)OCCC(C)Nc1nc(ncc1Cl)N2 (single isomer, unassigned) [E94, 4-{14-chloro-4,11-dimethyl-8-oxa-2,5,6,12,16,17-hexaazatricyclo [11.3.1.0^3,7]heptadeca-1(16),3,6,13(17),14-pentaen-5-yl}cyclohexan-1-ol] as the compound, how does the pIC50 read?
Answer: ≥ 7.00

Question: With Cc1c2c(nn1C1CCOCC1C(F)(F)F)OCC[C@@H](C)Nc1nc(ncc1Cl)N2 (single isomer, unassigned) [E448] as the compound, how does the pIC50 read?
Answer: ≥ 7.00

Question: How did the pIC50 turn out when Cc1c2c(nn1C1CCC(F)(F)CC1)OCCCNc1nc(ncc1Cl)N2 [E142, 14-Chloro-5-(4,4-difluorocyclohexyl)-4-methyl-8-oxa-2,5,6,12, 16,17-hexaazatricyclo[11.3.1.0^3,7]heptadeca-1(16),3,6,13(17),14-pentaene] was run?
Answer: ≥ 7.00

Question: With Cc1c2c(nn1C1CCC(C(F)(F)F)CC1)OCCCNc1nc(ncc1Cl)N2 (single isomer, unassigned) [E276, 14-Chloro-4-methyl-5-[4-(trifluoromethyl)cyclohexyl]-8-oxa-2,5,6,12,16,17-hexaazatricyclo[11.3.1.0^3,7] heptadeca-1(16),3,6,13(17),14-pentaene] as the compound, how does the pIC50 read?
Answer: ≥ 7.00

Question: Cc1c2c(nn1C1CC3(COC3)C1)OCCC(C)Nc1nc(ncc1Cl)N2 (racemic) was tested. Which pIC50 did it give?
Answer: < 5.00

Question: With Cc1c2c(nn1C1CCOCC1F)OCC(F)CNc1nc(ncc1Cl)N2 (single isomer, unassigned) [E334, 14-Chloro-10-fluoro-5-(3-fluorooxan-4-yl)-4-methyl-8-oxa-2,5,6,12,16,17-hexaazatricyclo[11.3.1.0^3,7] heptadeca-1(16),3,6,13(17),14-pentaene] as the compound, how does the pIC50 read?
Answer: ≥ 7.00

Question: How did the pIC50 turn out when Cc1c2c(nn1C1CN(C3COC3)CCC1(F)F)OCCCNc1nc(ncc1Cl)N2 (single isomer, unassigned) [E408, 14-Chloro-5-[4,4-difluoro-1-(oxetan-3-yl)piperidin-3-yl]-4-methyl-8-oxa-2,5,6,12,16,17-hexaazatricyclo[11.3.1.0^3,7]heptadeca-1(16),3,6,13(17),14-pentaene] was run?
Answer: ≥ 7.00

Question: How did the pIC50 turn out when Cc1c2c(nn1C1COCC(F)C1)OCCCNc1nc(ncc1Cl)N2 (single isomer, unassigned) [E371, 14-Chloro-5[5-fluorooxan-3-yl]-4-methyl-8-oxa-2,5,6,12,16,17-hexaazatricyclo[11.3.1.0^3,7]heptadeca-1(16),3,6, 13(17),14-pentaene] was run?
Answer: ≥ 7.00

Question: Cc1c2c(nn1C1CCN(C3CCOC3)CC1)OCC[C@@H](C)Nc1nc(ncc1Cl)N2 (single isomer, unassigned) [E383] was tested. Which pIC50 did it give?
Answer: ≥ 7.00

Question: How did the pIC50 turn out when COC1CNc2nc(ncc2Cl)Nc2c(nn(CC(F)(F)F)c2C)OC1 (single isomer, unassigned) [E269, 14-Chloro-10-methoxy-4-methyl-5-(2,2,2-trifluoroethyl)-8-oxa-2,5,6,12,16,17-hexaazatricyclo[11.3.1.0^3,7] heptadeca-1(16),3,6,13 (17),14-pentaene] was run?
Answer: ≥ 7.00

Question: Cc1c2c(nn1C1CCN(C3COC3)CC1F)OCCC(C)Nc1nc(ncc1Cl)N2 (single isomer, unassigned) [E96, 14-chloro-5-[3-fluoro-1-(oxetan-3-yl)piperidin-4-yl]-4,11-dimethyl-8-oxa-2,5,6,12,16,17-hexaazatricyclo[11.3.1.0^3,7]heptadeca-1(16),3,6,13(17),14-pentaene] was tested. Which pIC50 did it give?
Answer: ≥ 7.00

Question: COC1CNc2nc(ncc2Cl)Nc2c(nn(C3CCOCC3)c2Cl)OC1 (single isomer, unassigned) [E341, 4,14-Dichloro-10-methoxy-5-(oxan-4-yl)-8-oxa-2,5,6,12,16,17-hexaazatricyclo[11.3.1.0^3,7]heptadeca-1(16),3,6,13(17),14-pentaene] was tested. Which pIC50 did it give?
Answer: ≥ 7.00

Question: With COC1CNc2nc(ncc2Cl)Nc2c(nn(C3CCOCC3)c2C)OC1 (centres unmarked) [E2, 14-Chloro-10-methoxy-4-methyl-5-(oxan-4-yl)-8-oxa-2,5,6,12,16,17-hexaazatricyclo [11.3.1.0^3,7]heptadeca-1(16),3,6,13(17),14-pentaene] as the compound, how does the pIC50 read?
Answer: ≥ 7.00

Question: Cc1c2c(nn1C1CCOCC1)OCCC(C)Oc1nc(ncc1Cl)N2 (single isomer, unassigned) [E330, 14-Chloro-4,11-dimethyl-5-(oxan-4-yl)-8,12-dioxa-2,5,6,16,17-pentaazatricyclo[11.3.1.0^3,7]heptadeca-1(17), 3,6,13,15-pentaene] was tested. Which pIC50 did it give?
Answer: ≥ 7.00

Question: Cc1c2c(nn1C1CCOCC1)OCCCNc1nc(ncc1C(C)(C)C)N2 [E441, 14-tert-Butyl-4-methyl-5-(oxan-4-yl)-8-oxa-2,5,6,12,16,17-hexaazatricyclo[11.3.1.0^3,7]heptadeca-1(16),3,6,13(17),14-pentaene] was tested. Which pIC50 did it give?
Answer: < 5.00

Question: With COCCN1CCC(n2nc3c(c2C)Nc2ncc(Cl)c(n2)NCCCO3)C(F)C1 (single isomer, unassigned) [E59, trans-14-chloro-5-[3-fluoro-1-(2-methoxyethyl)piperidin-4-yl]-4-methyl-8-oxa-2,5,6,12,16,17-hexaazatricyclo[11.3.1.0^3,7]heptadeca 1(16),3,6,13(17),14-pentaene] as the compound, how does the pIC50 read?
Answer: ≥ 7.00

Question: With COC1CCCC(n2nc3c(c2C)Nc2ncc(Cl)c(n2)NC(C)CCO3)C1 (single isomer, unassigned) [E170, 14-Chloro-5-(3-methoxycyclohexyl)-4,11-dimethyl-8-oxa-2,5,6,12,16,17-hexaazatricyclo[11.3.1.0^3,7] heptadeca-1(16),3,6,13(17),14-pentaene] as the compound, how does the pIC50 read?
Answer: ≥ 7.00

Question: COCCN1c2nc(ncc2Cl)Nc2c(nn(C3CCOCC3)c2C)OCC[C@H]1C [E400, (11R)-14-Chloro-12-(2-methoxyethyl)-4,11-dimethyl-5-(oxan-4-yl)-8-oxa-2,5,6,12,16,17-hexaazatricyclo[11.3.1.0^3,7]heptadeca-1(16),3,6,13(17),14-pentaene] was tested. Which pIC50 did it give?
Answer: ≥ 7.00

Question: How did the pIC50 turn out when Cc1c2c(nn1C1(C#N)CCOCC1)OCCCNc1nc(ncc1Cl)N2 [E450, 4-{14-chloro-4-methyl-8-oxa-2,5,6,12,16,17-hexaazatricyclo[11.3.1.0^3,7]heptadeca-1(17),3,6,13,15-pentaen-5-yl}oxane-4-carbonitrile] was run?
Answer: ≥ 7.00

Question: With Cc1c2c(nn1C1CCOCC1)OCCC(C)Nc1cc(ncc1Cl)N2 (single isomer, unassigned) [E345, 14-Chloro-4,11-dimethyl-5-(oxan-4-yl)-8-oxa-2,5,6,12,16-pentaazatricyclo[11.3.1.0^3,7]heptadeca-1(16),3,6,13 (17),14-pentaene] as the compound, how does the pIC50 read?
Answer: ≥ 7.00

Question: How did the pIC50 turn out when Cc1c2c(nn1C1CCC(C)CC1)OCCCNc1nc(ncc1Cl)N2 (single isomer, unassigned) [E257, 14-Chloro-4-methyl-5-(4-methylcyclohexyl)-8-oxa-2,5,6,12,16,17-hexaazatricyclo[11.3.1.0^3,7]heptadeca-1(16),3,6,13 (17),14-pentaene] was run?
Answer: ≥ 7.00

Question: With N#Cc1cnc2nc1NCCCOc1nn(C3CCOCC3(F)F)c(Cl)c1N2 (centres unmarked) [E438, 4-Chloro-5-(3,3-difluorooxan-4-yl)-8-oxa-2,5,6,12,16,17-hexaazatricyclo[11.3.1.0^3,7]heptadeca-1(16),3,6,13(17),14-pentaene-14-carbonitrile] as the compound, how does the pIC50 read?
Answer: ≥ 7.00

Question: With Cc1c2c(nn1C1CCC(OC(F)F)CC1)OCC[C@@H](C)Nc1nc(ncc1Cl)N2 (stereo partly drawn) [E374, (11R)-14-Chloro-5-[4-(difluoromethoxy)cyclohexyl]-4,11-di methyl-8-oxa-2,5,6,12,16,17-hexaazatricyclo[11.3.1.0^3,7]hepta deca-1(16),3,6,13(17),14-pentaene] as the compound, how does the pIC50 read?
Answer: ≥ 7.00
